Values joined by “and” are separate entries in the source; they are usually repeats but may differ in a detail not shown here. Identical values can stand only once.
Columns and labels:
mosquitoes (Ae. aegypti) = test: Compound residual life: contact irritancy (Example 10); assay type: in vivo; details: for Number escaping (mean +/- SE), treated: 10 mosquitoes per run, 6 runs per net sample
Experimental: (§1) Four compounds of formula (I) were tested for contact irritancy (i.e., movement away from the source after physical contact) at low doses on female Aedes aegypti (Thailand strain) mosquitoes. The contact irritant response was determined by use of the contact irritant assay disclosed by Grieco et al. in “A New Classification System for the Actions of IRS Chemicals Traditionally Used for Malaria Control,” Plos One, Issue 8 (2007) (available at www.plosone.org). The assay used was a cylindrical assembly that included a metal treatment end to which 10 mosquitoes were introduced and a clear receiving chamber. The treatment end included a netting strip (nylon organdy) that was treated with the insecticide of interest at the relevant dose. A butterfly valve separated the treatment end from the remainder of the assembly.
Contact irritancy tests (blind testing) were performed for several samples of compounds 1405 and 1406 at 0 weeks, 2 weeks, 4 weeks, 8 weeks and 12 weeks to determine the residual contact irritancy of the compounds on mosquitoes (Ae. aegypti). Between testing, the nets were hung in the lab and held at a temperature of 27-29° C. and 56-67% relative humidity. Each run was performed 6 times for each sample with 10 mosquitoes used in each run (60 mosquitoes total).

Susceptible An. Gambiae = test: Bottle toxicity assay (Example 8), susceptible mosquitoes; assay type: in vivo, Anopheles gambiae
Experimental: (§2) Several compounds were tested to determine their toxic effect on knockdown resistant Anopheles gambiae mosquitoes and susceptible mosquitoes. Acetone and different amounts of pesticides were added to 250 ml bottles. In one bottle, only acetone was added as a control. The bottles were rotated in all directions while uncapped until all acetone was evaporated and the insecticide was coated onto the inside surfaces of the bottle. A number of knockdown resistant Anopheles gambiae mosquitoes were added to the bottle. The number of dead mosquitoes was recorded at 1 hour and 24 hours.

[1] = tested on: Ae. Aegypti, That strain (pyrethroid tolerant); test: Contact irritancy on pyrethroid tolerant mosquitoes (Example 5); assay type: in vivo
Experimental: as §1
(§3) Each composition was applied to the netting strip at a varied dose via a 1.5 ml acetone solution. Four (4) treatment concentrations were used—0.0025 nmol/cm^2, 0.025 nmol/cm^2, 0.25 nmol/cm^2 and 2.5 nmol/cm^2. Netting was allowed to dry for 15 minutes prior to placement in the cylinder. Control assays were performed with netting treated with acetone only.
(§4) For each run, 10 mosquitoes were transferred into the treatment end of the assembly and, after 30 seconds, the butterfly valve was opened. The valve was closed after 10 minutes and the number of mosquitoes in the clear end (i.e., the number of escaped mosquitoes) was tested.
(§5) The contact irritancy protocol of Example 2 was used to determine contact irritancy against mosquitoes (Ae. Aegypti) that had acquired metabolic resistance against pyrethroids. Alphacypermethrin and transfluthrin were also tested. Three mosquito strains were tested—Houston which is pyrethroid susceptible, That which is pyrethroid tolerant and Isla Mujer which is metabolically pyrethroid resistant.

[2] = tested on: Ae. aegypti Isla mujeres strain (metabolically pyrethroid resistant); test: Toxicity assay on treated netting (Example 7), Isla mujeres strain; assay type: in vivo
Experimental: Several compounds were tested to determine their toxic effect on Ae. aegypti mosquitoes. Three mosquito strains were tested—Houston which is pyrethroid susceptible, That which is pyrethroid tolerant and Isla Mujer which is metabolically pyrethroid resistant.
The toxicity assay involved a single chamber to which treated netting was added. Twenty (20) mosquitoes were transferred to the chamber. After 1 hour, the number of knocked down mosquitoes was recorded and all mosquitoes were transferred to holding cartoons. The mosquitoes were given a 10% sucrose-soaked cotton ball and returned to the insectary. Mortaility was measured after 24 hours. A control assay using acetone-treated netting was used. Six replicates were performed at each treatment concentration.

[3] = tested on: Ae. Aegypti, Isla Mujer strain (metabolically pyrethroid resistant); test: Contact irritancy on metabolically resistant mosquitoes (Example 5); assay type: in vivo
Experimental: as §1, §3, §4, §5

[4] = tested on: Ae. Aegypti strains Houston, That and Isla Mujer; test: Spatial repellency on metabolically resistant mosquitoes (Example 6); assay type: in vivo
Experimental: The four compounds of formula I described in Example 2 were tested for spatial repellency (directed movement away from the chemical source without the insect making physical contact with the treated surface) at low doses on female Aedes aegypti (Thailand strain) mosquitoes. The spatial repellency response was determined by use of the spatial repellency assay disclosed by Grieco et al. in “A New Classification System for the Actions of IRS Chemicals Traditionally Used for Malaria Control” in Plos One, Issue 8 (2007) (available at www.plosone.org) which is incorporated herein by reference for all relevant and consistent purposes. The assay used was a cylindrical assembly that included a treatment chamber at one end and a control chamber at the other end. The treatment chamber included a netting strip (nylon organdy) that was treated with the insecticide of interest at the relevant dose. The treatment chamber and control chamber were connected by a clear cylinder and were separated from the clear cylinder by butterfly valves. Twenty (20) mosquitoes were introduced into the clear central chamber and the butterfly valves were opened after 30 seconds. After 10 minutes, the valves were closed and the number of mosquitoes in each chamber was counted.
as §5, with “spatial repellency” for “contact irritancy”, “3” for “2”, “DDT” for “Alphacypermethrin”

KDR Resisant An. Gambiae = test: Bottle toxicity assay (Example 8), knockdown resistant mosquitoes; assay type: in vivo, Anopheles gambiae
Experimental: as §2

[5] = Dose 0.00025 μg/bottle, Strain Tested F123, Time 1 hour
[6] = Dose 0.00025 μg/bottle, Strain Tested F123, Time 24 hours
[7] = Dose 0.0025 μg/bottle, Strain Tested F122, Time 1 hour
[8] = Dose 0.0025 μg/bottle, Strain Tested F122, Time 24 hours
[9] = Dose 0.0025 μg/bottle, Strain Tested F123, Time 1 hour
[10] = Dose 0.0025 μg/bottle, Strain Tested F123, Time 24 hours
[11] = Dose 0.025 μg/bottle, Strain Tested F122, Time 1 hour
[12] = Dose 0.025 μg/bottle, Strain Tested F122, Time 24 hours
[13] = Dose 0.025 μg/bottle, Strain Tested F123, Time 1 hour
[14] = Dose 0.025 μg/bottle, Strain Tested F123, Time 24 hours
[15] = Dose 0.25 μg/bottle, Strain Tested F122, Time 1 hour
[16] = Dose 0.25 μg/bottle, Strain Tested F122, Time 24 hours
[17] = Dose 0.25 μg/bottle, Strain Tested F123, Time 1 hour
[18] = Dose 0.25 μg/bottle, Strain Tested F123, Time 24 hours
[19] = Dose 2.5 μg/bottle, Strain Tested F122, Time 1 hour
[20] = Dose 2.5 μg/bottle, Strain Tested F122, Time 24 hours
[21] = Dose 2.5 μg/bottle, Strain Tested F123, Time 1 hour
[22] = Dose 2.5 μg/bottle, Strain Tested F123, Time 24 hours
[23] = Dose 25 μg/bottle, Strain Tested F123, Time 1 hour
[24] = Dose 25 μg/bottle, Strain Tested F123, Time 24 hours

## CC1(C)C(C=C(Cl)C(F)(F)F)C1C(=O)OCc1ccc(F)c(C(F)(F)F)c1F (centres unmarked) [Compound 1405]
Mosquitoes (Ae. aegypti); Time 0 week
  Percent escaping (mean ± SE): 90 ± 5% and 80 ± 5% and 85 ± 4% and 88 ± 5%
Mosquitoes (Ae. aegypti); Time 2 week
  Percent escaping (mean ± SE): 47 ± 6% and 42 ± 7% and 47 ± 3% and 47 ± 4%
  Number escaping (mean +/- SE), treated: 1.7 ± 0.6 and 2.2 ± 0.7 and 1.7 ± 0.4
Mosquitoes (Ae. aegypti); Time 8 week
  Number escaping (mean +/- SE), treated: 1.8 ± 0.5 and 2.2 ± 0.5 and 1.8 ± 0.9 and 1.5 ± 0.6
Susceptible An. Gambiae; [5]
  Susceptible An. Gambiae (% dead (SE)): 100%
Susceptible An. Gambiae; [6]
  Susceptible An. Gambiae (% dead (SE)): 87%
Susceptible An. Gambiae; [7]
  Susceptible An. Gambiae (% dead (SE)): 100%
Susceptible An. Gambiae; [8]
  Susceptible An. Gambiae (% dead (SE)): 95%
Susceptible An. Gambiae; [9]
  Susceptible An. Gambiae (% dead (SE)): 100%
Susceptible An. Gambiae; [10]
  Susceptible An. Gambiae (% dead (SE)): 100%
Susceptible An. Gambiae; [11]
  Susceptible An. Gambiae (% dead (SE)): 100%
Susceptible An. Gambiae; [12]
  Susceptible An. Gambiae (% dead (SE)): 100%
Susceptible An. Gambiae; [13]
  Susceptible An. Gambiae (% dead (SE)): 100%
Susceptible An. Gambiae; [14]
  Susceptible An. Gambiae (% dead (SE)): 100%
Susceptible An. Gambiae; [15]
  Susceptible An. Gambiae (% dead (SE)): 100%
Susceptible An. Gambiae; [16]
  Susceptible An. Gambiae (% dead (SE)): 100%
Susceptible An. Gambiae; [17]
  Susceptible An. Gambiae (% dead (SE)): 100%
Susceptible An. Gambiae; [18]
  Susceptible An. Gambiae (% dead (SE)): 100%
Susceptible An. Gambiae; [19]
  Susceptible An. Gambiae (% dead (SE)): 100%
Susceptible An. Gambiae; [20]
  Susceptible An. Gambiae (% dead (SE)): 100%
Susceptible An. Gambiae; [21]
  Susceptible An. Gambiae (% dead (SE)): 100%
Susceptible An. Gambiae; [22]
  Susceptible An. Gambiae (% dead (SE)): 100%
Susceptible An. Gambiae; [23]
  Susceptible An. Gambiae (% dead (SE)): 100%
Susceptible An. Gambiae; [24]
  Susceptible An. Gambiae (% dead (SE)): 100%
[1]
  contact irritancy, tolerant strain (FIG. 4): contact irritants for tolerant strains
[2]; Dose 0.025 nm/cm^2, Time 1 hour
  Isla mujeres (% dead (SE)): 100%
[2]; Dose 0.025 nm/cm^2, Time 24 hours
  Isla mujeres (% dead (SE)): 11.84%
[2]; Dose 0.0725 nm/cm^2, Time 1 hour
  Isla mujeres (% dead (SE)): 100%
[2]; Dose 0.0725 nm/cm^2, Time 24 hours
  Isla mujeres (% dead (SE)): 9.69%
[2]; Dose 0.125 nm/cm^2, Time 1 hour
  Isla mujeres (% dead (SE)): 100%
[2]; Dose 0.125 nm/cm^2, Time 24 hours
  Isla mujeres (% dead (SE)): 9.89%
[2]; Dose 0.25 nm/cm^2, Time 1 hour
  Isla mujeres (% dead (SE)): 100%
[2]; Dose 0.25 nm/cm^2, Time 24 hours
  Isla mujeres (% dead (SE)): 100%
[2]; Dose 2.5 nm/cm^2, Time 1 hour
  Isla mujeres (% dead (SE)): 100%
[2]; Dose 2.5 nm/cm^2, Time 24 hours
  Isla mujeres (% dead (SE)): 100%
[2]; summary of Table 2
  toxicity to resistant populations compared with standard compounds: more toxic to resistant populations than permethrin, matfluthrin and transfluthrin
[3]
  contact irritancy, resistant strain (FIG. 4): effective in resistant strains
[4]
  spatial repellency, all strains (FIG. 5): spatial repellants for all strains
KDR Resisant An. Gambiae; [5]
  KDR Resisant An. Gambiae (% dead (SE)): 55%
KDR Resisant An. Gambiae; [6]
  KDR Resisant An. Gambiae (% dead (SE)): 37%
KDR Resisant An. Gambiae; [7]
  KDR Resisant An. Gambiae (% dead (SE)): 100%
KDR Resisant An. Gambiae; [8]
  KDR Resisant An. Gambiae (% dead (SE)): 66%
KDR Resisant An. Gambiae; [9]
  KDR Resisant An. Gambiae (% dead (SE)): 92%
KDR Resisant An. Gambiae; [10]
  KDR Resisant An. Gambiae (% dead (SE)): 100%
KDR Resisant An. Gambiae; [11]
  KDR Resisant An. Gambiae (% dead (SE)): 100%
KDR Resisant An. Gambiae; [12]
  KDR Resisant An. Gambiae (% dead (SE)): 100%
KDR Resisant An. Gambiae; [13]
  KDR Resisant An. Gambiae (% dead (SE)): 100%
KDR Resisant An. Gambiae; [14]
  KDR Resisant An. Gambiae (% dead (SE)): 100%
KDR Resisant An. Gambiae; [15]
  KDR Resisant An. Gambiae (% dead (SE)): 100%
KDR Resisant An. Gambiae; [16]
  KDR Resisant An. Gambiae (% dead (SE)): 100%
KDR Resisant An. Gambiae; [17]
  KDR Resisant An. Gambiae (% dead (SE)): 100%
KDR Resisant An. Gambiae; [18]
  KDR Resisant An. Gambiae (% dead (SE)): 100%
KDR Resisant An. Gambiae; [19]
  KDR Resisant An. Gambiae (% dead (SE)): 100%
KDR Resisant An. Gambiae; [20]
  KDR Resisant An. Gambiae (% dead (SE)): 100%
KDR Resisant An. Gambiae; [21]
  KDR Resisant An. Gambiae (% dead (SE)): 100%
KDR Resisant An. Gambiae; [22]
  KDR Resisant An. Gambiae (% dead (SE)): 100%
KDR Resisant An. Gambiae; [23]
  KDR Resisant An. Gambiae (% dead (SE)): 100%
KDR Resisant An. Gambiae; [24]
  KDR Resisant An. Gambiae (% dead (SE)): 100%
KDR Resisant An. Gambiae; summary of Table 3
  effectiveness against knockdown resistant strains: effective against knockdown resistant strains
